Read-outs that look alike come from different tables or passages of the source.
Tests used:
HT-29 = experiment: Cytotoxic assay (IC50) in HT-29; assay type: cell-based, human
From the text: (§1) DS-B: cells were exposed to a chemical stress comprising a chemical stimulation with chemotherapeutic agents commonly used for the colorectal cancer: 5-FU (Sigma, F6627), oxaliplatin (Sigma, Y0000271) or SN-38 (7-ethyl-10-hydroxy-camptothecin) (Sigma, H0165). In particular, the association of a chemotherapeutic agent with each cell line was based on literature assumptions (Table 3), and further on the degree of resistance of the cell line to each chemotherapeutic agent. For each cell line, this resistance level to each chemotherapeutic agent was assessed by determining the half maximal inhibitory concentration (IC50) in a cytotoxic assay.

HCT-116 = experiment: Cytotoxic assay (IC50) in HCT-116; assay type: cell-based, human
From the text: as §1

LoVo = experiment: Cytotoxic assay (IC50) in LoVo; assay type: cell-based, human
From the text: as §1

CD66 (CEA) = experiment: FACS marker expression: CD66; assay type: cell-based, human
Procedure: (§2) A comparison of marker expression was carried out to validate each DS-A and DS-B.

[1] = test system: colorectal human cell lines; settings: according to the literature; cited from earlier work
CD107 (LAMP-1) = experiment: FACS marker expression: CD107; assay type: cell-based, human; settings: HT-29 cells treated with oxaliplatin
Procedure: as §2
(§3) Finally, the vaccine composition (DP or “STC-1010”) could be formulated by pooling all six DS (3 DS-A—one for each cell line; and 3 DS-B—one for each cell line) in 100 μL doses (each comprising 3 million cells).

CD54 (ICAM-1) = experiment: FACS marker expression: CD54; assay type: cell-based, human; settings: HT-29 cells treated with oxaliplatin
Procedure: as §2

CD95 (FAS receptor) = experiment: FACS marker expression: CD95; assay type: cell-based, human; settings: HT-29 cells treated with oxaliplatin
Procedure: as §2

SW480 = experiment: Cytotoxic assay (IC50) in SW480; assay type: cell-based; settings: Homo sapiens, SW480 cell line
From the text: as §1

CD243 (MDR-1) = experiment: FACS marker expression: CD243; assay type: cell-based, human; settings: LoVo cells treated with 5-FU
Procedure: as §2, §3

[2] = HT-29 cell line, cytotoxic assay, read-out: IC50
[3] = HCT-116 cell line, cytotoxic assay, read-out: IC50
[4] = LoVo cell line, cytotoxic assay, read-out: IC50

| SMILES | IC50 (HT-29; [2]) [nM] | IC50 (HCT-116; [3]) [nM] | IC50 (LoVo; [4]) [nM] | CD66 expression as compared to unstressed cells (CD66 (CEA); HCT-116 cells treated with SN-38) | Resistance cell lines [1] | CD107 expression as compared to unstressed cells (CD107 (LAMP-1)) | CD54 expression as compared to unstressed cells (CD54 (ICAM-1)) | CD95 expression as compared to unstressed cells (CD95 (FAS receptor)) | IC50 (HT-29; Homo sapiens, HT-29) [nM] | IC50 (HCT-116; Homo sapiens, HCT-116) [nM] | IC50 (LoVo; Homo sapiens, LoVo) [nM] | IC50 (SW480) [nM] | CD66 expression as compared to unstressed cells (CD66 (CEA); LoVo cells treated with 5-FU) | CD243 expression as compared to unstressed cells (CD243 (MDR-1)) |
| --- | --- | --- | --- | --- | --- | --- | --- | --- | --- | --- | --- | --- | --- | --- |
| CCc1c2c(nc3ccc(O)cc13)-c1cc3c(c(=O)n1C2)COC(=O)[C@]3(O)CC [SN-38, 7-ethyl-10-hydroxy-camptothecin] | 130 | 50 | 22 | overexpression | HCT-116, HT-29, SW48 |  |  |  |  |  |  |  |  |  |
| O=C1[O][Pt]2([NH][C@@H]3CCCC[C@H]3[NH]2)[O]C1=O [Oxaliplatin, oxaliplatin] | 460 | 600 | 1100 |  | HCT-116, HT-29, LoVo, SW48 | overexpression | overexpression | overexpression |  |  |  |  |  |  |
| O=c1[nH]cc(F)c(=O)[nH]1 [5-FU, fluorouracil] |  |  |  |  | HCT-116, HT-29, SW48, SW480 |  |  |  | 3600 | 17000 | 2400 | 23100 | overexpression | overexpression |

Source: patent publication US20240123045A1, “NONAUTOLOGOUS MULTI-STRESSED CANCER CELLS AND USES THEREOF FOR VACCINATING AND TREATING CANCERS” (BRENUS PHARMA, priority 2021, published 2024)
